The record followed here is PubChem BioAssay (NCI).

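Grown in 96-well plates, cells were treated for 48 hours with each compound at five concentrations. Insufficient inhibition: endpoint recorded as highest concentration tested. TGI marks complete inhibition of growth.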 A value given as a limit tells only on which side of the number the result lay.

Among the test systems are SF-539 CNS; OVCAR-3 ovarian; K-562 leukemia; BT-549 breast; UACC-257 melanoma; OVCAR-5 ovarian; 786-0 renal; SK-MEL-5 melanoma; ACHN renal; IGROV1 ovarian; M14 melanoma; MDA-MB-231 breast; OVCAR-4 ovarian; HOP-92 NSCLC; MDA-MB-435; MCF7 breast; SF-295 CNS; NCI-H522 lung; U251 CNS; CCRF-CEM leukemia.
What all share (assay): NCI-60 cell line screen, 48 h

In the case of `CC1(c2nc3cc(Cl)c(Cl)cc3[nH]2)CCC(C(=O)O)C(C)(C)O1` (stereo not given), the TGI in the test on SF-539 CNS, in the test with OVCAR-3 ovarian, in the test on K-562 leukemia, in the test with BT-549 breast, with UACC-257 melanoma and with OVCAR-5 ovarian was over 100 µM throughout. Also, the TGI in the test with 786-0 renal, with SK-MEL-5 melanoma, in the test on ACHN renal, in the test with IGROV1 ovarian, in the test on M14 melanoma and in the test on MDA-MB-231 breast was over 100 µM throughout. Besides, the TGI with OVCAR-4 ovarian, in the test on HOP-92 NSCLC, in the test with MDA-MB-435, in the test on MCF7 breast, with SF-295 CNS and in the test on NCI-H522 lung was over 100 µM throughout. The TGI in the test on U251 CNS and with CCRF-CEM leukemia was over 100 µM in each case.

Turning to `C/C(=C\[C@H]1C[C@@H]([C@@H]2CC[C@]34C[C@]23C=C[C@@H]2[C@@]3(C)CC=C5C[C@@H](c6ccccc6)OC[C@]5(C)[C@@H]3C[C@@H](O)[C@]24C)C(=O)O1)CO`, the TGI is 35.1 µM with SF-539 CNS; over 100 µM in the test with OVCAR-3 ovarian; over 100 µM in the test with K-562 leukemia; 98.6 µM in the test with BT-549 breast; 30.7 µM with UACC-257 melanoma; 34.2 µM in the test with OVCAR-5 ovarian. Also, the TGI is over 100 µM in the test with 786-0 renal; 2.76 µM in the test on SK-MEL-5 melanoma; 34.8 µM with ACHN renal; 20.5 µM in the test with IGROV1 ovarian; over 100 µM in the test with M14 melanoma; 54.4 µM with MDA-MB-231 breast. Moreover, the TGI in the test on OVCAR-4 ovarian was over 62.7 µM; with HOP-92 NSCLC, 28.1 µM; in the test with MDA-MB-435 it was over 100 µM; in the test on MCF7 breast, over 100 µM; in the test on SF-295 CNS, 15.7 µM; with NCI-H522 lung, 89.3 µM. For the same molecule, the TGI in the test on U251 CNS and with CCRF-CEM leukemia was over 100 µM throughout.

Regarding `Nc1nc(Cl)cc(NCC2(CO)CCC(OCc3ccccc3)C2)n1` (stereo not given), the TGI with SF-539 CNS is over 100 µM; with OVCAR-3 ovarian, over 100 µM; in the test with K-562 leukemia, over 100 µM; in the test on BT-549 breast, 80.1 µM; in the test on UACC-257 melanoma, 45.1 µM; with OVCAR-5 ovarian, over 100 µM. The TGI with 786-0 renal was over 100 µM; in the test with SK-MEL-5 melanoma, 18.8 µM; in the test on ACHN renal, over 100 µM; in the test with IGROV1 ovarian, over 100 µM; with M14 melanoma it was 61 µM; in the test on MDA-MB-231 breast it was 42.8 µM. Moreover, the TGI is 65.2 µM with OVCAR-4 ovarian; 37 µM in the test with HOP-92 NSCLC; 39.9 µM in the test with MDA-MB-435; 89.1 µM in the test on MCF7 breast; over 100 µM in the test with SF-295 CNS; 37.9 µM with NCI-H522 lung. Further, the TGI in the test with U251 CNS and in the test on CCRF-CEM leukemia was over 100 µM each time.

On to `O=C(NO)c1ccc(OCc2ccccc2)cc1`, for which the TGI in the test with SF-539 CNS, with OVCAR-3 ovarian, in the test with K-562 leukemia, in the test on BT-549 breast, in the test with UACC-257 melanoma and in the test with OVCAR-5 ovarian was over 100 µM in each case. Also, the TGI with 786-0 renal is 55.3 µM; in the test with SK-MEL-5 melanoma, over 100 µM; with ACHN renal, 88.8 µM; in the test with IGROV1 ovarian, over 100 µM; with M14 melanoma, over 100 µM; in the test with MDA-MB-231 breast, over 100 µM. Also, the TGI in the test with OVCAR-4 ovarian is 75 µM; in the test with HOP-92 NSCLC it was over 100 µM; in the test on MDA-MB-435 it was over 100 µM; in the test with MCF7 breast, over 100 µM; in the test on SF-295 CNS, over 100 µM; with NCI-H522 lung, 51.5 µM. Moreover, the TGI in the test with U251 CNS and in the test with CCRF-CEM leukemia was over 100 µM in each case.

As for `CCCCN1C(=O)C[C@H]2[C@@H]3CCc4cc(OCCN5CCCC5)ccc4[C@H]3CC[C@]2(C)C1=O`, the TGI with SF-539 CNS worked out at 21.4 µM; in the test on OVCAR-3 ovarian, 23.7 µM; in the test on K-562 leukemia it was 7.23 µM; with BT-549 breast, 26.6 µM; in the test with UACC-257 melanoma, 13.4 µM; with OVCAR-5 ovarian, 24.3 µM. In addition, the TGI with 786-0 renal is 9.64 µM; in the test with SK-MEL-5 melanoma it was 15.7 µM; in the test on ACHN renal, 25.5 µM; with IGROV1 ovarian, 30.7 µM; in the test with M14 melanoma, 3.92 µM; in the test on MDA-MB-231 breast, 15.7 µM. Further, the TGI in the test on OVCAR-4 ovarian came to 27.6 µM; in the test with HOP-92 NSCLC, 18.3 µM; in the test on MDA-MB-435, 19.1 µM; in the test with MCF7 breast, 15.6 µM; with SF-295 CNS, 9.63 µM; in the test on NCI-H522 lung, 22.7 µM. Further, the TGI in the test with U251 CNS was found to be 19.4 µM; with CCRF-CEM leukemia it was 15 µM.

As to `CCOC(=O)C(SCCO)C(C(=O)OCC)n1cc(C)c(=O)[nH]c1=O` (stereo not given), the TGI with SF-539 CNS was over 65.3 µM; with OVCAR-3 ovarian it was 51.7 µM; in the test with K-562 leukemia it was 15.8 µM; in the test with BT-549 breast it was over 85.1 µM; in the test on UACC-257 melanoma, over 84.6 µM; with OVCAR-5 ovarian, 32.1 µM. Moreover, the TGI in the test on 786-0 renal is 15.6 µM; in the test with SK-MEL-5 melanoma it was over 70.6 µM; in the test on ACHN renal it was over 57.1 µM; in the test on IGROV1 ovarian, over 65.4 µM; in the test with M14 melanoma it was 25 µM; in the test on MDA-MB-231 breast, 48.9 µM. The TGI in the test with OVCAR-4 ovarian was over 74.7 µM; with HOP-92 NSCLC, 71.9 µM; in the test with MDA-MB-435, over 56.1 µM; with MCF7 breast, 43.5 µM; in the test with SF-295 CNS, over 100 µM; in the test with NCI-H522 lung, 17.6 µM. In addition, the TGI stood at 36.5 µM with U251 CNS and 8.1 µM with CCRF-CEM leukemia.
